Experimental data reported in article PMC6277767, “Broad and Region-Specific Impacts of the Synthetic Cannabinoid CP 55,940 in Adolescent and Adult Female Mouse Brains” (Frontiers in Molecular Neuroscience, 2018).

System: CD1 female mouse brain lipidome
Assay: Brain-region lipid levels (HPLC/MS/MS lipidomics) 2 h after single i.p. 3 mg/kg CP 55,940 vs vehicle
Assay type: in vivo
Set-up: N-arachidonoyl phenylalanine level, Mean / N-stearoyl tryptophan level, Mean / N-stearoyl proline level, Mean / N-stearoyl leucine level, Mean / N-stearoyl phenylalanine level, Mean / N-stearoyl serine level, Mean / N-stearoyl methionine level, Mean: unit: moles per gram
Conditions: cortex, 3mg/kg CP 55,940
Description: The Bloomington Institutional Animal Care and Use Committee of Indiana University reviewed and approved the animal procedures. Female mice from the CD1 strain were utilized to match our study examining THC’s effects on the brain lipidome ([Leishman et al., 2018]). Mice were given a single i.p. injection of either 3 mg/kg CP or 1:1:18 cremophor:ethanol:saline vehicle (please refer to the section “3 mg/kg CP Is Relevant for Synthetic Cannabinoid Abuse and Has Stronger Effects on the Female Mouse Brain Lipidome During Adolescence” for a justification of dose and use of female mice). Three different age groups were given injections: PND 35 and PND 50 adolescents, and adult mice (PND 113). At least eight mice in each age group received CP and at least eight received vehicle. Matching the THC study time course ([Leishman et al., 2018]), mice were sacrificed via rapid decapitation 2 h after injection. Brains were immediately removed and flash-frozen in liquid nitrogen, and then stored at -80°C until dissections were performed. Brains were dissected on an ice-cold dissection plate into the following regions: STR, HIPP, CER, THAL, CTX, HYP, MID, and STEM. These abbreviations for these brain areas will be used exclusively when discussing the results generated by these specific dissections. Each dissected area was immediately placed in liquid nitrogen and then stored at -80°C until used for lipid extraction.
Tissue extracts were performed as previously described ([Bradshaw et al., 2006]; [Stuart et al., 2013]; [Raboune et al., 2014]; [Leishman et al., 2016a],[b], [2017], [2018]). First, samples were shock frozen in liquid nitrogen, weighed, and transferred to a centrifuge tube. The mass of the largest sample was multiplied by 50 to determine how many milliliters of HPLC-grade methanol (Fisher, Fair Lawn, NJ, United States) to add. Then, samples were spiked with 500 pmol deuterium-labeled NAGly (d8NAGly; Cayman Chemical, Ann Arbor, MI, United States). Samples were placed on ice in darkness for 2 h then individually homogenized and centrifuged at 19,000 × g for 20 min at 20°C. Supernatants were diluted with HPLC water (purified in house) to make a solution of 75% water, 25% supernatant. Lipids were partially purified on C18 solid phase extraction columns (Agilent, Palo Alto, CA, United States). A series of four elutions with 1.5 mL of 60%, 75%, 85%, and 100% methanol were collected ([Stuart et al., 2013]; [Leishman et al., 2016a],[b], [2018]).
As previously described ([Bradshaw et al., 2006]; [Tan et al., 2006]; [Smoum et al., 2010]; [Stuart et al., 2013]; [Tortoriello et al., 2013]; [Raboune et al., 2014]; [Leishman et al., 2016a],[b], [2017], [2018]), samples were analyzed using an Applied Biosystems API 3000 triple quadrupole mass spectrometer with electrospray ionization (Foster City, CA, United States). Using an Agilent XDB-C18 reversed phase analytical column and optimized mobile phase gradients, 20 μL from each elution were chromatographed. Two Shimadzu 10ADvp pumps (Columbia, MD, United States) provided the pressure for gradient elution. Mobile phase A: 20% methanol, 80% water (v/v) and 1 mM ammonium acetate (Sigma, St. Louis, MO, United States). Mobile phase B: 100% methanol, 1 mM ammonium acetate. Every method run began with 0% mobile phase B, reached 100% mobile phase B flowing at 0.2 mL/min, and gradually returned to 0% mobile phase B.
This screening library will be referred to as the lipidome when discussing data from this study. HPLC/MS/MS data were analyzed using Analyst software (Applied Biosystems) ([Bradshaw et al., 2006]; [Tan et al., 2006]; [Stuart et al., 2013]; [Tortoriello et al., 2013]; [Raboune et al., 2014]; [Leishman et al., 2016a],[b], [2017], [2018]). Chromatograms (Supplementary Figure 3) were generated by determining the retention time of analytes from the analytical column with a [M-1] or [M+1] parent peak and a fragmentation peak corresponding to the programmed values. […]

## CCCCCCC(C)(C)c1ccc([C@@H]2C[C@H](O)CC[C@H]2CCCO)c(O)c1 [CP 55,940]
PND 50 female mice
  N-palmitoyl leucine level, Mean: 1.98E-12
  N-palmitoyl methionine level, Mean: 1.01E-12
  N-palmitoyl phenylalanine level, Mean: 1.98E-12
  N-palmitoyl proline level, Mean: BDL
  N-palmitoyl serine level, Mean: 4.17E-11
  N-palmitoyl tryptophan level, Mean: BDL
  N-palmitoyl tyrosine level, Mean: 6.65E-13
  N-palmitoyl valine level, Mean: 3.13E-13
  N-stearoyl GABA level, Mean: 1.55E-11
  N-stearoyl alanine level, Mean: 3.67E-12
  N-stearoyl ethanolamine level, Mean: 2.8E-12
  N-stearoyl glycine level, Mean: 1.45E-12
  N-stearoyl leucine level, Mean: 2.21E-12
  N-stearoyl methionine level, Mean: 1.13E-12
  N-stearoyl phenylalanine level, Mean: 2.99E-12
  N-stearoyl proline level, Mean: BDL
  N-stearoyl serine level, Mean: 3.75E-11
  N-stearoyl tryptophan level, Mean: BDL
  N-stearoyl tyrosine level, Mean: 2.52E-13
  Oleic acid level, Mean: 1.6E-09
  PGE2 level, Mean: 1.58E-10
  PhosphoLEA level, Mean: 3.22E-12
  THC level, Mean: BDL
WT adult female mice
  N-arachidonoyl GABA level, Mean: 1.28E-11
  N-arachidonoyl alanine level, Mean: 1.09E-12
  N-arachidonoyl ethanolamine level, Mean: 2.77E-11
  N-arachidonoyl glycine level, Mean: 1.07E-12
  N-arachidonoyl phenylalanine level, Mean: 5.77E-14
  N-docosahexaenoyl GABA level, Mean: 6.57E-12
  N-docosahexaenoyl ethanolamine level, Mean: 2.54E-11
  N-docosahexaenoyl glycine level, Mean: 8.32E-14
  N-docosahexaenoyl leucine level, Mean: 8.03E-13
  N-docosahexaenoyl phenylalanine level, Mean: 3E-14
  N-linoleoyl GABA level, Mean: 4.08E-12
  N-linoleoyl ethanolamine level, Mean: 2.93E-11
  N-linoleoyl glycine level, Mean: 5.03E-14
  N-linoleoyl leucine level, Mean: 9.31E-14
  N-oleoyl GABA level, Mean: 9.86E-12
  N-oleoyl alanine level, Mean: 2.22E-12
  N-oleoyl ethanolamine level, Mean: 1.38E-10
  N-oleoyl glycine level, Mean: 2.9E-13
  N-oleoyl leucine level, Mean: 7.57E-13
  N-oleoyl phenylalanine level, Mean: 3.2E-13
  N-palmitoyl GABA level, Mean: 1.4E-11
  N-palmitoyl alanine level, Mean: 2.07E-12
  N-palmitoyl ethanolamine level, Mean: 3.62E-11
  N-palmitoyl glycine level, Mean: 9.43E-13
  N-palmitoyl leucine level, Mean: 1.16E-12
  N-palmitoyl methionine level, Mean: 2.58E-12
  N-palmitoyl phenylalanine level, Mean: 2.56E-13
  N-stearoyl GABA level, Mean: 1.05E-11
